Results on 13 compounds are retold here after patent US10981926B2 (Janssen Pharmaceutica NV, priority 2016, dated 2021).

What all share (type): cell-based
For assay [1], the target named is T1, wild-type Androgen Receptor (AR-wt) (Homo sapiens (Human), UniProt P10275). Nature of the assay: LNCaP-AR-wt ANT reporter assay (antagonist mode). To be noted: for Emax: read-out: LNCaP-AR-wt ANT MAX % Inh; for IC50: read-out: LNCaP-AR-wt ANT pIC50 (converted). (Reporter assays use an easily measured gene product as a stand-in for the process of interest.)
Assay [2] concerns the target T2, F876L mutant Androgen Receptor (AR-F876L) (Homo sapiens (Human), UniProt P10275, F877L). As to the kind of experiment: LNCaP-AR-F876L ANT reporter assay (antagonist mode). As to conditions: for Emax: read-out: LNCaP-AR-F876L ANT MAX % Inh; for IC50: read-out: LNCaP-AR-F876L ANT pIC50 (converted).
Assay [3] concerns the target T1, wild-type Androgen Receptor (AR-wt). As to the kind of experiment: LNCaP-AR-wt AG reporter assay (agonist mode). As to conditions: for Emax: read-out: LNCaP-AR-wt AG MAX % Stim; for EC50: read-out: LNCaP-AR-wt AG pEC50 (converted).
Assay [4] deals with T2, F876L mutant Androgen Receptor (AR-F876L). Nature of the assay: LNCaP-AR-F876L AG reporter assay (agonist mode). To be noted: for Emax: read-out: LNCaP-AR-F876L AG MAX % Stim; for EC50: read-out: LNCaP-AR-F876L AG pEC50 (converted).
[5] abbreviates: antagonist mode, maximum % inhibition of R1881 control response over tested concentration range.
Setting [6] is: antagonist mode, pIC50 = −Log10(IC50 in Molar).
[7] abbreviates: agonist mode, maximum % stimulation over tested concentration range.
The mark [8] stands for this setting: agonist mode, pEC50 = −Log10(EC50 in Molar).
The mark [9] stands for this setting: maximum % inhibition of R1881 control response over the tested concentration range.
[10] abbreviates: maximum % stimulation (agonist response) over the tested concentration range.

T2 sequence (P10275 whole entry F877L): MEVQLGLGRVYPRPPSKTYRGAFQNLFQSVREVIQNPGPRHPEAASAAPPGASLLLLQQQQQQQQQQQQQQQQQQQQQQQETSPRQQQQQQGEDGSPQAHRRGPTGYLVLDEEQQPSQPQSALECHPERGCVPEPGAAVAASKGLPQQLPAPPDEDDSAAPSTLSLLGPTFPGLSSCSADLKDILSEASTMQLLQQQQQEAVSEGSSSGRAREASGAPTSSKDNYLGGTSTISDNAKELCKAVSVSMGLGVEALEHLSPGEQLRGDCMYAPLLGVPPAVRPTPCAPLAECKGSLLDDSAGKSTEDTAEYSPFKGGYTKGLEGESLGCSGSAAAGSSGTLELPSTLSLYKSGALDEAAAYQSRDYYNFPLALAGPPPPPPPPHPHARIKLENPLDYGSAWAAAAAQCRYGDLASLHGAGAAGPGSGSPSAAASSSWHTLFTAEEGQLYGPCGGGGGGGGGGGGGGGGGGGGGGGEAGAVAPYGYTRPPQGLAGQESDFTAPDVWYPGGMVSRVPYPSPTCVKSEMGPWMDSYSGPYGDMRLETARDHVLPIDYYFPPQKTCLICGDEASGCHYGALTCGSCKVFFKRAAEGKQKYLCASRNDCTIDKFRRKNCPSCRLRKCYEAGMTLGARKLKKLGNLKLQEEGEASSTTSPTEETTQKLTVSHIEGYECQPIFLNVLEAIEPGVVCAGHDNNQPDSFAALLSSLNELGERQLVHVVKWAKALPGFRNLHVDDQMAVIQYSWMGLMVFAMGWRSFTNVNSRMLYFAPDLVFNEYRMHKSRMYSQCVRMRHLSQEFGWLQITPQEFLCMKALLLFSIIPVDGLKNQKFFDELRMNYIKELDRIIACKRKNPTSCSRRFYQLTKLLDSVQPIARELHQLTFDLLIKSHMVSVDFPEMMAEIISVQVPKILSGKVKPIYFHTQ
T1 sequence (P10275 whole entry): as the sequence (P10275 whole entry F877L) above, with L877F counted along it

Turning to `CN1CC[C@@H](CNC(=O)c2ccc(N3C(=S)N(c4cnc(C#N)c(C(F)(F)F)c4)C(=O)C34CCC4)cc2)C1` [Cpd 187, 4-[6-[6-cyano-5-(trifluoromethyl)-3-pyridyl]-5-oxo-7-thioxo-6,8-diazaspiro[3.4]octan-8-yl]-N-[[(3S)-1-methylpyrrolidin-3-yl]methyl]benzamide], the Emax in assay [1] (setting [5]) came out at 101%; in assay [2] (setting [5]), 101%; in assay [3] (setting [7]), 0.3%; in assay [4] (setting [7]), 0.2%. Besides, the IC50 is 1260 nM in assay [1] (setting [6]) and 513 nM in assay [2] (setting [6]). For the same compound, the EC50 in assay [3] (setting [8]) and in assay [4] (setting [8]) was over 15100 nM throughout.
`CN1CC[C@@H](Oc2ccc(N3C(=S)N(c4cnc(C#N)c(C(F)(F)F)c4)C(=O)C34CCC4)cc2)C1` [Cpd 16, 5-[8-[4-[(3R)-1-methylpyrrolidin-3-yl]oxyphenyl]-5-oxo-7-thioxo-6,8-diazaspiro[3.4]octan-6-yl]-3-(trifluoromethyl)pyridine-2-carbonitrile]: the results for the IC50 in assay [1] (setting [6]) and in assay [2] (setting [6]) were 1120 nM and 363 nM, respectively. The Emax in assay [1] (setting [9]) stood at 98.8%; in assay [2] (setting [9]) it was 97.5%; in assay [3] (setting [10]) it was 0.5%; in assay [4] (setting [10]), 0.8%. The EC50 in assay [3] (setting [8]) and in assay [4] (setting [8]) was over 15100 nM each time.
As for `CN1CCC[C@H](CNC(=O)c2ccc(N3C(=S)N(c4cnc(C#N)c(C(F)(F)F)c4)C(=O)C34CCC4)cc2)C1` [Cpd 184, 4-[6-[6-cyano-5-(trifluoromethyl)-3-pyridyl]-5-oxo-7-thioxo-6,8-diazaspiro[3.4]octan-8-yl]-N-[[(3R)-1-methyl-3-piperidyl]methyl]benzamide], the IC50 in assay [1] (setting [6]) is 813 nM; in assay [2] (setting [6]), 447 nM. For the same compound, the Emax was 100% in assay [1] (setting [9]), 99.6% in assay [2] (setting [9]), 0.2% in assay [3] (setting [10]) and 0.4% in assay [4] (setting [10]). The EC50 in assay [3] (setting [8]) and in assay [4] (setting [8]) was over 15100 nM each time.
Consider `N#Cc1ncc(N2C(=O)C3(CCC3)N(c3ccc(C(=O)NC[C@H]4CCCNC4)c(F)c3)C2=S)cc1C(F)(F)F` [Cpd 204, 4-[6-[6-cyano-5-(trifluoromethyl)-3-pyridyl]-5-oxo-7-thioxo-6,8-diazaspiro[3.4]octan-8-yl]-2-fluoro-N-[[(3S)-3-piperidyl]methyl]benzamide], for which the Emax came to 102% in assay [1] (setting [5]), 99.7% in assay [2] (setting [5]), 0.1% in assay [3] (setting [7]) and 0% in assay [4] (setting [7]). Further, the values for the IC50 in assay [1] (setting [6]) and in assay [2] (setting [6]) were 2450 nM and 1950 nM, respectively. The EC50 in assay [3] (setting [8]) and in assay [4] (setting [8]) was over 15100 nM each time.
Turning to `N#Cc1ncc(N2C(=O)C3(CCC3)N(c3ccc4c(cnn4CCO)c3)C2=S)cc1Cl` [Cpd 163, 3-chloro-5-[8-[1-(2-hydroxyethyl)indazol-5-yl]-5-oxo-7-thioxo-6,8-diazaspiro[3.4]octan-6-yl]pyridine-2-carbonitrile], the IC50 in assay [1] (setting [6]) was 724 nM; in assay [2] (setting [6]), 288 nM. Further, the Emax in assay [1] (setting [9]) was determined as 100%; in assay [2] (setting [9]), 99.3%; in assay [3] (setting [10]), 0.4%; in assay [4] (setting [10]), 0.1%. In addition, the EC50 in assay [3] (setting [8]) and in assay [4] (setting [8]) was over 15100 nM each time.
Regarding `CC(C)(C)OC(=O)N1C2CCC1C(F)C(Oc1ccc(N3C(=S)N(c4cnc(C#N)c(C(F)(F)F)c4)C(=O)C34CCC4)cc1)C2` (centres unmarked) [Cpd 85, tert-butyl 3-[4-[6-[6-cyano-5-(trifluoromethyl)-3-pyridyl]-5-oxo-7-thioxo-6,8-diazaspiro[3.4]octan-8-yl]phenoxy]-4-fluoro-8-azabicyclo[3.2.1]octane-8-carboxylate], the “LNCaP-AR-wt ANT pIC50” value in assay [1] (setting [6]) was found to be 6.46. Further, the Emax in assay [1] (setting [9]) is 88.3%; in assay [2] (setting [9]) it was 85.8%; in assay [3] (setting [10]), -0.1%; in assay [4] (setting [10]), 0.6%. The “LNCaP-AR-F876L ANT pIC50” value in assay [2] (setting [6]) was determined as 6.37. In assay [3] (setting [8]), the “LNCaP-AR-wt AG pEC50” value is on record as under 4.82. Besides, in assay [4] (setting [8]), the “LNCaP-AR-F876L AG pEC50” value is reported as under 4.82.
For `N#Cc1ncc(N2C(=O)C3(CCC3)N(c3ccc(CN4CCC(N)CC4)cc3)C2=S)cc1C(F)(F)F` [Cpd 224, 5-[8-[4-[(4-amino-1-piperidyl)methyl]phenyl]-5-oxo-7-thioxo-6,8-diazaspiro[3.4]octan-6-yl]-3-(trifluoromethyl)pyridine-2-carbonitrile], the Emax in assay [1] (setting [5]) worked out at 101%; in assay [2] (setting [5]), 100%; in assay [3] (setting [7]) it was 0%; in assay [4] (setting [7]), 0.1%. Also, the IC50 in assay [1] (setting [6]) was 1780 nM; in assay [2] (setting [6]), 1480 nM. In addition, the EC50 in assay [3] (setting [8]) and in assay [4] (setting [8]) was over 15100 nM throughout.
`CN1CCC(Oc2ccc(N3C(=S)N(c4cnc(C#N)c(C(F)(F)F)c4)C(=O)C34CCC4)cc2)CC12CCC2` (racemic) [Cpd 178, (R,S)-5-[8-[4-[(9-methyl-9-azaspiro[3.5]nonan-6-yl)oxy]phenyl]-5-oxo-7-thioxo-6,8-diazaspiro[3.4]octan-6-yl]-3-(trifluoromethyl)pyridine-2-carbonitrile]: the figures for the IC50 in assay [1] (setting [6]) and in assay [2] (setting [6]) were 174 nM and 234 nM, respectively. The Emax is 104% in assay [1] (setting [9]), 102% in assay [2] (setting [9]), 0.3% in assay [3] (setting [10]) and 0% in assay [4] (setting [10]). The EC50 in assay [3] (setting [8]) and in assay [4] (setting [8]) was over 15100 nM in each case.
As to `COc1cc(N2C(=O)C3(CCC3)N(c3ccc(CC4CCN(C)CC4)cc3)C2=S)cnc1C#N` [Cpd 239, 3-methoxy-5-[8-[4-[(1-methyl-4-piperidyl)methyl]phenyl]-5-oxo-7-thioxo-6,8-diazaspiro[3.4]octan-6-yl]pyridine-2-carbonitrile], the Emax in assay [1] (setting [5]) is 103%; in assay [2] (setting [5]), 102%; in assay [3] (setting [7]), -0.1%; in assay [4] (setting [7]), 0.2%. Further, the IC50 is 603 nM in assay [1] (setting [6]) and 347 nM in assay [2] (setting [6]). Further, the EC50 in assay [3] (setting [8]) and in assay [4] (setting [8]) was over 15100 nM each time.
Take `COC(=O)C1CCC(N2C(=S)N(c3cnc(C#N)c(C(F)(F)F)c3)C(=O)C23CCC3)CC1` (centres unmarked) [Cpd 57, Methyl 4-[6-[6-cyano-5-(trifluoromethyl)-3-pyridyl]-5-oxo-7-thioxo-6,8-diazaspiro[3.4]octan-8-yl]cyclohexanecarboxylate]: the IC50 is 490 nM in assay [1] (setting [6]) and 200 nM in assay [2] (setting [6]). Further, the Emax in assay [1] (setting [9]) is 100%; in assay [2] (setting [9]), 99.1%; in assay [3] (setting [10]) it was 0.3%; in assay [4] (setting [10]) it was 0.3%. The EC50 in assay [3] (setting [8]) and in assay [4] (setting [8]) was over 15100 nM in each case.
For `N#Cc1ncc(N2C(=O)C3(CCC3)N(c3ccc(CN4CCN(CCO)CC4)cc3)C2=S)cc1C(F)(F)F` [Cpd 227, 5-[8-[4-[[4-(2-hydroxyethyl)piperazin-1-yl]methyl]phenyl]-5-oxo-7-thioxo-6,8-diazaspiro[3.4]octan-6-yl]-3-(trifluoromethyl)pyridine-2-carbonitrile], the Emax in assay [1] (setting [5]) is 102%; in assay [2] (setting [5]), 100%; in assay [3] (setting [7]), -0.2%; in assay [4] (setting [7]) it was 0.1%. Moreover, the IC50 in assay [1] (setting [6]) is 513 nM; in assay [2] (setting [6]), 417 nM. Also, the EC50 in assay [3] (setting [8]) and in assay [4] (setting [8]) was over 15100 nM in each case.
In the case of `CN1CC[C@H](CNC(=O)c2ccc(N3C(=S)N(c4cnc(C#N)c(C(F)(F)F)c4)C(=O)C34CCC4)cc2F)C1` [Cpd 218, 4-[6-[6-cyano-5-(trifluoromethyl)-3-pyridyl]-5-oxo-7-thioxo-6,8-diazaspiro[3.4]octan-8-yl]-2-fluoro-N-[[(3R)-1-methylpyrrolidin-3-yl]methyl]benzamide], the Emax in assay [1] (setting [5]) worked out at 102%; in assay [2] (setting [5]) it was 99.6%; in assay [3] (setting [7]) it was 0%; in assay [4] (setting [7]) it was 0.1%. Also, the IC50 in assay [1] (setting [6]) is 1170 nM; in assay [2] (setting [6]), 912 nM. In addition, the EC50 in assay [3] (setting [8]) and in assay [4] (setting [8]) was over 15100 nM each time.
`COc1cc(N2C(=O)C3(CCC3)N(c3ccc4nn(C5CCN(C)CC5)cc4c3)C2=S)cnc1C#N` [Cpd 215, 3-methoxy-5-[8-[2-(1-methyl-4-piperidyl)indazol-5-yl]-5-oxo-7-thioxo-6,8-diazaspiro[3.4]octan-6-yl]pyridine-2-carbonitrile]: the Emax in assay [1] (setting [5]) came to 101%; in assay [2] (setting [5]), 101%; in assay [3] (setting [7]), 0%; in assay [4] (setting [7]), 0.1%. For the same compound, the values for the IC50 in assay [1] (setting [6]) and in assay [2] (setting [6]) were 347 nM and 240 nM, respectively. The EC50 in assay [3] (setting [8]) and in assay [4] (setting [8]) was over 15100 nM throughout.
